Paper PMC8878501 (Marine Drugs, 2022)
Positions of bridges follow the written chain, without caps; N, C: chain ends. Residues, ends and D or L forms follow the SMILES beside them.

Key:
rα3β2 nAChR = rα3β2 nAChR (Rattus norvegicus, UniProt P04757+P12390); test: cell-based; settings: 20–25 °C
rα6/α3β4 nAChR = rα6/α3β4 nAChR (Rattus norvegicus, UniProt P04757+P12392+P43143); test: cell-based; settings: 20–25 °C
rα3β4 nAChR = rα3β4 nAChR (Rattus norvegicus, UniProt P04757+P12392); test: cell-based; format: cell-based
rα7 nAChR = rα7 nAChR (Rattus norvegicus, UniProt Q05941); format: cell-based; settings: at 20 μM
rα4β2 nAChR = rα4β2 nAChR (Rattus norvegicus, UniProt P09483+P12390); test: cell-based; format: cell-based
rα9α10 nAChR = rα9α10 nAChR (Rattus norvegicus, UniProt P43144+Q9JLB5); test: cell-based; format: cell-based
hα9α10 nAChR = hα9α10 nAChR (Homo sapiens, UniProt Q9GZZ6+Q9UGM1); test: cell-based
rα6/α3β2β3 nAChR = rα6/α3β2β3 nAChR (Rattus norvegicus, UniProt P04757+P12390+P12391+P43143); test: cell-based

Sequence of hα9α10 nAChR (Q9UGM1 26-479 limits assumed): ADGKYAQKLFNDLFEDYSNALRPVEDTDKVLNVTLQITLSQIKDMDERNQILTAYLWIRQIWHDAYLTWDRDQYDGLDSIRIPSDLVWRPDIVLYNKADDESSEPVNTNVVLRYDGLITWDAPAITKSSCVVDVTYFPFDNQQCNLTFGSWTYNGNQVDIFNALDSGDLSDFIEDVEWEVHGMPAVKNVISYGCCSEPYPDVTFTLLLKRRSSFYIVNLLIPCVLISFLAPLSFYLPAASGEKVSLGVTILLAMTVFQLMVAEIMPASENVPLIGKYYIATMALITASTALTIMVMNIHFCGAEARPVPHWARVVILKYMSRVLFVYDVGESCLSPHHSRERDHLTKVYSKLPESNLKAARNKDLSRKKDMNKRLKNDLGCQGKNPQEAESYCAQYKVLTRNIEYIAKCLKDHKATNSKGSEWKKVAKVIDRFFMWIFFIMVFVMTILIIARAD
Sequence of hα9α10 nAChR (Q9GZZ6 25-450 limits assumed): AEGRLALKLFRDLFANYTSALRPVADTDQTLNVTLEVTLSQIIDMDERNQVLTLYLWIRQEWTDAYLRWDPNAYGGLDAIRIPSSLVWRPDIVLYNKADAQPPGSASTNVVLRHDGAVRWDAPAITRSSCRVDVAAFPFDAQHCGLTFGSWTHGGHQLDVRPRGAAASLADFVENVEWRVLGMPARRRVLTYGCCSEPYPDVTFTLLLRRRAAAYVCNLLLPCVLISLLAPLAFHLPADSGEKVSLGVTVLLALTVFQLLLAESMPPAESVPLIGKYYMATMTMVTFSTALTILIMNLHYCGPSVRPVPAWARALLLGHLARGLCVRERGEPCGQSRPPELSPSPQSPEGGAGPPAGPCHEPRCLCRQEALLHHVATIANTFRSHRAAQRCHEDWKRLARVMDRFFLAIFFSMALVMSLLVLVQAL
Sequence of rα3β4 nAChR (P04757 26-499 limits assumed): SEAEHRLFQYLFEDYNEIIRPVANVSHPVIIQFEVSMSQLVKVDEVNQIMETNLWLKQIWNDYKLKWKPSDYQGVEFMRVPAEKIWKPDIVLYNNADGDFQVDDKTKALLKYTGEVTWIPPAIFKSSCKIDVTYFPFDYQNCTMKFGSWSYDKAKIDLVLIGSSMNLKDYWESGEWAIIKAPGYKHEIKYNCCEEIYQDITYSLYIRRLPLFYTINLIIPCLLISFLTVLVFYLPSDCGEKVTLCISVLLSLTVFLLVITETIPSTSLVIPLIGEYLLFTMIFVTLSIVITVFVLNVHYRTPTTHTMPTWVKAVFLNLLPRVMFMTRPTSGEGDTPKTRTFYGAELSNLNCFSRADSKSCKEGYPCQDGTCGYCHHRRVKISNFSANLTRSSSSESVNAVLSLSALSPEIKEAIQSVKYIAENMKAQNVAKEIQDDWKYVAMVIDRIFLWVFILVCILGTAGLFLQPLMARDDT
Sequence of rα3β4 nAChR (P12392 21-495 limits assumed): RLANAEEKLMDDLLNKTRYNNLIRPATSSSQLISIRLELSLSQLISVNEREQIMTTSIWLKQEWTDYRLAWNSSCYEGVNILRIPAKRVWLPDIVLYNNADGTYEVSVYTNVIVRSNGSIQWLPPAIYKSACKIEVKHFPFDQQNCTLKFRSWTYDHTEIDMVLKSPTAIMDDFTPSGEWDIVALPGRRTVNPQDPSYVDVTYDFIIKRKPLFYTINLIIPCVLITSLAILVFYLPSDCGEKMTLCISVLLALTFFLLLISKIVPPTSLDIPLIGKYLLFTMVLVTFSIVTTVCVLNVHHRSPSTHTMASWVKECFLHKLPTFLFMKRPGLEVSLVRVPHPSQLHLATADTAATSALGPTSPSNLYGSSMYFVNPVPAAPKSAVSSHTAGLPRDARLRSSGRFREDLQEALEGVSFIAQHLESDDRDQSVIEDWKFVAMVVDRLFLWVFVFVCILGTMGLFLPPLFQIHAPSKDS
Sequence of rα4β2 nAChR (P09483 31-630 limits assumed): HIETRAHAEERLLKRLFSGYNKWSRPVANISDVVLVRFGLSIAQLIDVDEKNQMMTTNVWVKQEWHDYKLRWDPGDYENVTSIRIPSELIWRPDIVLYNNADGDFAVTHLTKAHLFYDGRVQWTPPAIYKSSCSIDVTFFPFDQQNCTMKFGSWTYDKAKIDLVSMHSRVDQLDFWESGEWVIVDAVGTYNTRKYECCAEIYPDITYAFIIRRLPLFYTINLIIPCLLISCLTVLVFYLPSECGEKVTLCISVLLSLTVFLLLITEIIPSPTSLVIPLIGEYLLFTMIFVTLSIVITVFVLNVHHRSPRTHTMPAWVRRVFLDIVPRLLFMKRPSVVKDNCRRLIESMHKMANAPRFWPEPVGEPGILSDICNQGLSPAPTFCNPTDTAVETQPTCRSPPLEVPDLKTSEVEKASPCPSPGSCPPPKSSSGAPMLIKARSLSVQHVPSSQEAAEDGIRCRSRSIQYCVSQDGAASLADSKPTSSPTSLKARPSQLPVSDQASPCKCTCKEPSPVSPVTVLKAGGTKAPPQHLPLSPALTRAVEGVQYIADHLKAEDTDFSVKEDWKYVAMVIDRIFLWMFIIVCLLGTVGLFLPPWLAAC
Sequence of rα4β2 nAChR (P12390 25-500 limits assumed): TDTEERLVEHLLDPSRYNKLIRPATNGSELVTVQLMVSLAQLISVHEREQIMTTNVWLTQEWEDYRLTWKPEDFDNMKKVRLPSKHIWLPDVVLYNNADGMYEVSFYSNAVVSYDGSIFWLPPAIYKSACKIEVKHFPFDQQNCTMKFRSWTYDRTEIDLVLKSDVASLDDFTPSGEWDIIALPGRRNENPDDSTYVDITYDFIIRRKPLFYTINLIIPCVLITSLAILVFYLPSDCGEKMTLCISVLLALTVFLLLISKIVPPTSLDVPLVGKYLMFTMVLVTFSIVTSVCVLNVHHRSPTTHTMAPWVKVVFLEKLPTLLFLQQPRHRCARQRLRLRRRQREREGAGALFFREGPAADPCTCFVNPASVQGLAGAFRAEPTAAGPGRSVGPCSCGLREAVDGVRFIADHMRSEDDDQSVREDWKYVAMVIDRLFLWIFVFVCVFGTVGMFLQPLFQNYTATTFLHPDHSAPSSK
Sequence of rα9α10 nAChR (P43144 26-479 limits assumed): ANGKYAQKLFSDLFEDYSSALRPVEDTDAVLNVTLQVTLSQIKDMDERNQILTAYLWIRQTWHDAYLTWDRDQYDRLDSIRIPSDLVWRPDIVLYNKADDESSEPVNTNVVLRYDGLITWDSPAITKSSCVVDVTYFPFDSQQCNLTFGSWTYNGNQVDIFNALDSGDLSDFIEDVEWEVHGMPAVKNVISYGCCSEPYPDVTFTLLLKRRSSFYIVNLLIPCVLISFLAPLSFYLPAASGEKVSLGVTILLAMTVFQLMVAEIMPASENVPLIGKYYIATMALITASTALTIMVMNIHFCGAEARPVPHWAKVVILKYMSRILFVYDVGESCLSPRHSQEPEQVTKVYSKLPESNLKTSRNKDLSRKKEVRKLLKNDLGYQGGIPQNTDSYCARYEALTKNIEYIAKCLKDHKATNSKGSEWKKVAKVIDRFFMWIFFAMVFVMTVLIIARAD
Sequence of rα9α10 nAChR (Q9JLB5 25-447 limits assumed): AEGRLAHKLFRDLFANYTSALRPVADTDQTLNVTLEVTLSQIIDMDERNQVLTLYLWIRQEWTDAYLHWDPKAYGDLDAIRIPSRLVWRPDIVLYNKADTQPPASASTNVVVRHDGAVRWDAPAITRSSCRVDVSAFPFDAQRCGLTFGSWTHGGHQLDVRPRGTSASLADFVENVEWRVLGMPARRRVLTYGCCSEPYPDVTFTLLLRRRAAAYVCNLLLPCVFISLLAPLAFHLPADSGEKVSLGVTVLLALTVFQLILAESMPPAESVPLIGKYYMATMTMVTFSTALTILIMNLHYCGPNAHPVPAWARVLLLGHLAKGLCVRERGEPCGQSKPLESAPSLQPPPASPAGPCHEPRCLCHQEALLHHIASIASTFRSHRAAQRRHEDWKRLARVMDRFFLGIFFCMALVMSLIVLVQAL
Sequence of rα3β2 nAChR (P04757 26-499 limits assumed): as the sequence (P04757 26-499 limits assumed) above
Sequence of rα3β2 nAChR (P12390 25-500 limits assumed): as the sequence (P12390 25-500 limits assumed) above
Sequence of rα7 nAChR (Q05941 23-502 limits assumed): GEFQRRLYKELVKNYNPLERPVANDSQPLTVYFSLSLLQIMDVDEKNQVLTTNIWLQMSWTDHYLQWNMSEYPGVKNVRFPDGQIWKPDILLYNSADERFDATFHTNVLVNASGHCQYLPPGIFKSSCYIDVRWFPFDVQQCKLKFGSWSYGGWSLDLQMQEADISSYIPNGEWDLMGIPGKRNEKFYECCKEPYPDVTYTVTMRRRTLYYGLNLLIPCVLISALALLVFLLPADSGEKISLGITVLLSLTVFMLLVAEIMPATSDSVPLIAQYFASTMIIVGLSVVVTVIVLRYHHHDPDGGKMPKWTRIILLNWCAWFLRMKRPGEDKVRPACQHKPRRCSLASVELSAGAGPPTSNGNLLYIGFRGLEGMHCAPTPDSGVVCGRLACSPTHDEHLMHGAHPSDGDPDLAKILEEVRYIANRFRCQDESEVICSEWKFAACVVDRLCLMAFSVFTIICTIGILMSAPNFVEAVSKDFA

CC[C@H](C)[C@@H]1NC(=O)[C@H](CCC(=O)O)NC(=O)[C@@H]2CCCN2C(=O)[C@H](Cc2c[nH]cn2)NC(=O)[C@H]([C@@H](C)O)NC(=O)[C@H](CCC(N)=O)NC(=O)[C@H](C)NC(=O)[C@@H]2CSSC[C@H](NC(=O)[C@H](CCC(=O)O)NC(=O)[C@@H](N)CC(=O)O)C(=O)N[C@@H](CSSC[C@@H](C(N)=O)NC1=O)C(=O)N[C@@H](CO)C(=O)N[C@@H](CC(N)=O)C(=O)N1CCC[C@H]1C(=O)N[C@@H](CO)C(=O)N2 [QuIA] (H-DECCSNPSCAQTHPEIC-NH2; disulfide 3-9, 4-17)
IC50 (rα3β2 nAChR): 0.0557 µM | IC50 (rα6/α3β4 nAChR): 0.0907 µM | IC50 (rα3β4 nAChR): > 10 µM | blocking of ACh-induced current (rα3β4 nAChR; at 10 µM): ^a Values in parentheses are a 95% confidence interval (C.I.). ^b Less than 50% blocking at 10 µM. All receptors are of rat (r) or human (h) origin, except α1β1δε, which is of mouse (m) origin. ND, not determined. | blocking of ACh-induced current (rα7 nAChR): less than 50% | IC50 (rα4β2 nAChR): > 10 µM | blocking of ACh-induced current (rα4β2 nAChR; at 10 µM): ^a Values in parentheses are a 95% confidence interval (C.I.). ^b Less than 50% blocking at 10 µM. All receptors are of rat (r) or human (h) origin, except α1β1δε, which is of mouse (m) origin. ND, not determined. | IC50 (rα9α10 nAChR): > 10 µM | blocking of ACh-induced current (rα9α10 nAChR; at 10 µM): ^a Values in parentheses are a 95% confidence interval (C.I.). ^b Less than 50% blocking at 10 µM. All receptors are of rat (r) or human (h) origin, except α1β1δε, which is of mouse (m) origin. ND, not determined. | IC50 (hα9α10 nAChR): > 10 µM | blocking of ACh-induced current (hα9α10 nAChR; at 10 µM): ^a Values in parentheses are a 95% confidence interval (C.I.). ^b Less than 50% blocking at 10 µM. All receptors are of rat (r) or human (h) origin, except α1β1δε, which is of mouse (m) origin. ND, not determined. | IC50 (rα6/α3β2β3 nAChR): > 10 µM | blocking of ACh-induced current (rα6/α3β2β3 nAChR; at 10 µM): ^a Values in parentheses are a 95% confidence interval (C.I.). ^b Less than 50% blocking at 10 µM. All receptors are of rat (r) or human (h) origin, except α1β1δε, which is of mouse (m) origin. ND, not determined.
